One data set has as its system HeLa cells. In words: Cellular internalization of fluorescent IDO1 ligands (flow cytometry). The class given is cell-based. The conditions noted are these: for Internalization of fluorescently labeled peptide, in words: Cy5 or FITC label, flow cytometry. As for the experimental part: Internalization of fluorescently labeled peptides (using Cy5 or FITC) was measured by concentration dependent flow cytometry of unstimulated HeLa cells incubated for one hour with the peptide. […] Internalization was also testing using a cellular inhibition assay, which occurs over 48 hours (rather than the one hour for the flow cytometry assay). Internalized FITC-wyvay (SEQ ID NO:2) at 48 hours was compared to one hour in both unstimulated and stimulated HeLa cells (Table 13). Cell penetration of FITC-wyvay (SEQ ID NO:2) increases with time; more internalized FITC-wyvay (SEQ ID NO:2) can be detected at 48 hours compared to one hour. After one hour, no difference in intracellular staining of FITC-wyvay (SEQ ID NO:2) is observed in unstimulated versus stimulated cells. At 48 hours, there is a slight increase in intracellular FITC-wyvay (SEQ ID NO:2) in stimulated compared to unstimulated cells.
Protocol: HeLa cells were cultured to confluence (˜500,000 cells) in 6-well plates in cell culture medium (DMEM+10% Fetal Bovine Serum (FBS)+1% Penicillin/Streptomycin) or in cell culture medium containing 100 ng/mL IFNγ to stimulate IDO1 expression. The cells were treated with 2 μM or 8 μM macrocyclic IDO1 ligand labeled with either Cy5 or FITC for either 1 hour, 24 hours, or 48 hours as indicated. After treatment, the ligands were aspirated and the cells were washed twice with 1× Phosphate Buffered Saline (PBS). The cells were then harvested by treatment with 0.05% Trypsin-1×EDTA for 5 min at 37° C. Trypsin was quenched by the addition of PBS+2% FBS. The cells in suspension were washed twice in PBS+2% FBS, then resuspended in 500 μL PBS+2% FBS and analyzed for Cy5 or FITC fluorescence using a BD LSR Fortessa X-20 flow cytometer or/and ImageStream X Mark II imaging flow cytometer. Flow Cytometry Standard (fcs) data files were analyzed using FlowJo Software version 10.
On the technique in general: Flow cytometry measures light scatter and fluorescence of single cells or particles in a stream.

For a further data set, the target named is murine IDO1 protein (Mus musculus, UniProt P28776). Put plainly: ELISA against murine IDO1 protein (species cross-reactivity). As to conditions: Table 10; read-out: Mouse IDO EC50. The data set is classed as binding. As for the experimental part: (§1) Protocol: A black 96-well NEUTRAVIDIN® Coated High Binding Capacity plate (15510, Pierce) was coated with 2 μM biotinylated macrocyclic peptide ligand in TBS (25 mM Tris-HCl, 150 mM NaCl, pH 7.6) for 2 h at room temperature. The plate was aspirated and then washed with Wash Buffer (0.05% (v/v) TWEEN® 20 in PBS, 6×). His-tagged IDO1 human recombinant protein (71182, BPS Biosciences) was serially diluted in Wash Buffer (from 200 to 0 nM) and incubated in the designated microwells for 1 h at room temperature. Microwells were aspirated and subsequently washed with Wash Buffer (11×). To detect the bound IDO1 protein, Alkaline Phosphatase (AP)-conjugated Anti-6×HIS TAG® antibody [HIS-1] (ab49746, Abcam) was prepared at 1:10,000 dilution and added to the microwells for 1 h at room temperature. The plate was aspirated and washed with Wash Buffer (5×). ATTOPHOS® AP Fluorescent Substrate System (S1000, Promega) was employed to develop the microwells. Using an excitation wavelength of 430 nm, fluorescent emission at 535 nm was recorded by Beckman Coulter DTX880 photometer. Titration curves were fit using a four-parameter regression curve fitting program to determine EC50 values.
To test for cross-reactivity with murine IDO1, the human IDO1 targeted macrocyclic peptide ligands were assayed against the murine IDO1 protein by ELISA.

In data set [1] the target is T1, His-tagged IDO1 human recombinant protein (Homo sapiens, UniProt P14902).
T1 construct: purchased BPS Biosciences 71182
In words: IDO1 ELISA (Affinity Assay): sandwich ELISA, biotinylated ligand immobilized on NEUTRAVIDIN plate. The class given is binding. As to the method: as §1
For these assays, a dilution series of His-tagged IDO1 human recombinant protein was captured using the macrocyclic peptide ligands immobilized on a NEUTRAVIDIN®-coated plate. […] The sequences of the peptide ligands are listed in Table 1, where D-amino acids are denoted in lowercase, Me-Trp=1-methyl-L-tryptophan, and F-Phe=4-fluoro-L-phenylalanine. Chemical structures are shown below Table 1.
The D-alanine substituted, biotin-PEG3-modified macrocycles were tested in the IDO1 ELISA (Affinity assay). For these assays, a dilution series of His-tagged IDO1 human recombinant protein was captured using macrocycles immobilized on a NEUTRAVIDIN®-coated plate.
(In general: In an ELISA, binding on a coated surface is turned into a signal by an enzyme label.)

The nature of data set [2]: Percent organic elution in reverse-phase HPLC (C18) as lipophilicity readout. As to conditions: Table 16. The data set is classed as physicochemical. An excerpt:
The predicted increase in lipophilicity for wyvay (SEQ ID NO:2) was experimentally confirmed by the percent organic (% B) elution during reverse-phase HPLC (RP-HPLC) using a C18 column where solvents A=water+0.1% TFA and B=acetonitrile+0.1% TFA.

Where [3] appears, read: 2 μM biotinylated macrocycle immobilized, human IDO1 titrated 200 to 0 nM, read-out: EC50, sandwich ELISA for human IDO1 protein against biotin-PEG3-modified macrocycle.
Setting [4] is: Table 10, read-out: Human IDO EC50.

The EC50 is the concentration that produces a half-maximal response.

Entries after “also recorded” stand apart in the source; their conditions may differ. Read-outs that look alike come from different tables or passages of the source. Bridge positions count the residues as written; N and C are the ends. Square brackets hold non-standard residues; d marks the D form. Triazole bridges read from a SMILES are 1,4-linked. Ends that are not written are not given here. Peptide text beside a SMILES is read from it. * marks the point of attachment. Biotinyl(3aR,4R,6aS) = O=C1N[C@@H]2[C@@H](CS[C@@H]2CCCCC(=O)*)N1; dTrp(1-Me) = Cn1cc(C[C@@H](N)C(=O)O)c2ccccc21; X1 = O=C(CSc1nonc1/C(=N/O)Nc1ccc(F)c(Br)c1)*; Trp(1-Me) = Cn1cc(C[C@H](N)C(=O)O)c2ccccc21; Lys(N3) = [N-]=[N+]=NCCCC[C@H](N)C(=O)O; Phe(4-F) = N[C@@H](Cc1ccc(F)cc1)C(=O)O; dPhe(4-F) = N[C@H](Cc1ccc(F)cc1)C(=O)O; dNMeV = CN[C@@H](C(=O)O)C(C)C; AEEEA = NCCOCCOCCOCC(=O)O; Pra = C#CC[C@H](N)C(=O)O; βAla = NCCC(=O)O

murine IDO1 protein, sequence (P28776 whole entry): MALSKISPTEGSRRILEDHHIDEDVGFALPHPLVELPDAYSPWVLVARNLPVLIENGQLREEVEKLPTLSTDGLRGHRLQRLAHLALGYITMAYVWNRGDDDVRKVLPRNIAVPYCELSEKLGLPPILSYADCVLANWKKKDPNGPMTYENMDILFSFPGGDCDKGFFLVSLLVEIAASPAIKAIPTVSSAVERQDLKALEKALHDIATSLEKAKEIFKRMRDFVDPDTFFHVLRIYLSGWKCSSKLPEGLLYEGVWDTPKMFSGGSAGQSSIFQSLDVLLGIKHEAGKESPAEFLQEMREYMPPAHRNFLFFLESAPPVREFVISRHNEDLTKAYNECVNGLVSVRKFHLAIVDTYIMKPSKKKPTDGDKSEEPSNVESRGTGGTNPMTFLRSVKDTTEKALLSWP
T1 sequence (P14902 whole entry): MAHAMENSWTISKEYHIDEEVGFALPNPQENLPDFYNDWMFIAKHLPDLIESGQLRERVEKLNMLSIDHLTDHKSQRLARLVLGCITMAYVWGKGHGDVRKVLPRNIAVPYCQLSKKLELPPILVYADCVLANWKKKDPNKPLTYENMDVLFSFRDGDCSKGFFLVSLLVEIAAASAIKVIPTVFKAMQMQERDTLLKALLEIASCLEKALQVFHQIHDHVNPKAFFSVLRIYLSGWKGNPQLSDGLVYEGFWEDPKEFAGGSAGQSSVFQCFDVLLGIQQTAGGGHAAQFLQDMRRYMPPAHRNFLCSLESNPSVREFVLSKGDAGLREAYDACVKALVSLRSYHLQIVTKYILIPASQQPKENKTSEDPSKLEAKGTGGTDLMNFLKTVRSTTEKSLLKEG

As for “FITC-wyvay: FITC labeled wyvay macrocycle ([dW][dY][dV][dA][dY]; triazole (positions not given here); also: FITC label, site not given here, macrocycle by click between N-terminal Pra and C-terminal Az4, not in chain)”, the MFIR with HeLa cells (stimulated HeLa cells, 1 hour) is on record as 2.11; with HeLa cells (stimulated HeLa cells, 48 hours) it was 5.27; with HeLa cells (unstimulated HeLa cells, 1 hour) it was 2.27; with HeLa cells (unstimulated HeLa cells, 48 hours) it was 4.91.
For `CC(C)C[C@H]1NC(=O)[C@@H](CC(N)=O)NC(=O)[C@@H](NC(=O)COCCOCCOCCNC(=O)CCCC[C@H]2SC[C@H]3NC(=O)N[C@H]32)Cc2cn(nn2)CCCC[C@@H](C(N)=O)NC(=O)[C@@H](Cc2ccc(F)cc2)NC(=O)[C@@H](Cc2cn(C)c3ccccc23)NC(=O)[C@@H](Cc2ccccc2)NC1=O` [nlf(Me-Trp)(F-Phe), biotin-PEG3-Cy(nlf(Me-Trp)(F-Phe))] ({Biotinyl(3aR,4R,6aS)-AEEEA}-[Pra][dN][dL][dF][dTrp(1-Me)][dPhe(4-F)][Lys(N3)]-NH2; triazole 1-7), the EC50 is 89 ± 26 nM at murine IDO1 protein; 20 nM in data set [1] (setting [3]); 19 ± 1 nM in data set [1] (setting [4]); 44 nM in data set [1] (binding analysis of VHL-linked Epitope 2 ligand, read-out: EC50).
For “wy(N-Me-v)ay: wyvay peptide ligand with N-methylated valine (third N—H) ([Pra][dW][dY][dNMeV][dA][dY]; triazole N-C; not fully specified (C-terminus); printed as wy(N-Me-v)ay)”, in the data set with HeLa cells, the “Internalization of fluorescently labeled peptide, in words” value (from here on “Internalization”) is “much higher than wyvay”.
As to “FITC-nlf(Me-Trp)(F-Phe): FITC labeled Epitope 2 macrocycle nlf(Me-Trp)(F-Phe) ([dN][dL][dF][Trp(1-Me)][Phe(4-F)]; triazole (positions not given here); also: FITC label, site not given here, macrocycle by click between N-terminal Pra and C-terminal Az4, not in chain)”, in the data set on HeLa cells, the “Internalization” value is “reduced but detectable and concentration dependent”.
For `CC(C)[C@H]1NC(=O)[C@@H](Cc2ccc(O)cc2)NC(=O)[C@@H](Cc2c[nH]c3ccccc23)NC(=O)[C@@H](NC(=O)CNC(=O)CNC(=O)CNC(=O)CNC(=O)CNC(=O)CNC(=O)CNC(=O)CSc2nonc2/C(=N/O)Nc2ccc(F)c(Br)c2)Cc2cn(nn2)CCCC[C@@H](C(N)=O)NC(=O)[C@@H](Cc2ccc(O)cc2)NC(=O)[C@@H](C)NC1=O` [Inh-Gly7-wyvay] (X1-GGGGGGG[Pra][dW][dY][dV][dA][dY][Lys(N3)]-NH2; triazole 8-14), the “% MeCN” value in data set [2] is on record as 43.72%.
Take `N=C(N)NCCC[C@H]1NC(=O)[C@@H](Cc2ccc(O)cc2)NC(=O)[C@@H](Cc2c[nH]c3ccccc23)NC(=O)[C@@H](NC(=O)COCCOCCOCCNC(=O)CCCC[C@H]2SC[C@H]3NC(=O)N[C@H]32)Cc2cn(nn2)CCCC[C@@H](C(N)=O)NC(=O)[C@@H](Cc2ccc(O)cc2)NC1=O` [wyry, Biotin-PEG3-Cy(wyry)] ({Biotinyl(3aR,4R,6aS)-AEEEA}-[Pra][dW][dY][dR][dY][Lys(N3)]-NH2; triazole 1-6): in data set [1] (alanine scan, 3-mer/4-mer and substituted variants compared with parent macrocycle), the “Binding to human IDO1 by ELISA, in words” value was “best affinity among the 4-mer macrocycles; also recorded: superior binding affinity”. In addition, in the data set with HeLa cells, the “Internalization” value is given as “Concentration dependent internalization”.
Regarding `Cn1cc(C[C@H]2NC(=O)[C@@H](Cc3ccccc3)NC(=O)[C@@H](CCCNC(=N)N)NC(=O)[C@@H](Cc3ccccc3)NC(=O)[C@@H](NC(=O)COCCOCCOCCNC(=O)CCCC[C@H]3SC[C@H]4NC(=O)N[C@H]43)Cc3cn(nn3)CCCC[C@@H](C(N)=O)NC(=O)[C@@H](CO)NC2=O)c2ccccc21` [frf(Me-Trp)s, biotin-PEG3-Cy(frf(Me-Trp)s)] ({Biotinyl(3aR,4R,6aS)-AEEEA}-[Pra][dF][dR][dF][dTrp(1-Me)][dS][Lys(N3)]-NH2; triazole 1-7), the EC50 is 36 ± 16 nM at murine IDO1 protein; 20 nM in data set [1] (setting [3]); 20 nM in data set [1] (Example 9, read-out: Binding affinity (EC50) of prioritized Epitope 1 hits); 18 ± 2 nM in data set [1] (setting [4]).
As to `CC(C)C[C@H]1NC(=O)[C@@H](CC(N)=O)NC(=O)[C@@H](NC(=O)COCCOCCOCCNC(=O)CCCC[C@H]2SC[C@H]3NC(=O)N[C@H]32)Cc2cn(nn2)CCCC[C@@H](C(N)=O)NC(=O)[C@@H](CCCNC(=N)N)NC(=O)[C@@H](Cc2cn(C)c3ccccc23)NC(=O)[C@@H](Cc2c[nH]c3ccccc23)NC1=O` [nlw(Me-Trp)r, biotin-PEG3-Cy(nlw(Me-Trp)r)] ({Biotinyl(3aR,4R,6aS)-AEEEA}-[Pra][dN][dL][dW][dTrp(1-Me)][dR][Lys(N3)]-NH2; triazole 1-7), the figures for the EC50 (on murine IDO1 protein; in data set [1] (setting [3]); in data set [1] (setting [4])) were 48 nM, 43 nM and 51 ± 17 nM, respectively.
Turning to `NC(=O)[C@@H]1CCCCn2cc(nn2)C[C@H](NC(=O)COCCOCCOCCNC(=O)CCCC[C@H]2SC[C@H]3NC(=O)N[C@H]32)C(=O)N[C@H](CO)C(=O)N2CCC[C@@H]2C(=O)N[C@H](Cc2c[nH]c3ccccc23)C(=O)N[C@H](Cc2c[nH]c3ccccc23)C(=O)N[C@H](Cc2ccc(F)cc2)C(=O)N1` [spww(F-Phe), biotin-PEG3-Cy(spww(F-Phe))] ({Biotinyl(3aR,4R,6aS)-AEEEA}-[Pra][dS][dP][dW][dW][dPhe(4-F)][Lys(N3)]-NH2; triazole 1-7), the figures for the EC50 (at murine IDO1 protein; in data set [1] (setting [3]); in data set [1] (setting [4])) were 44 nM, 65 nM and 85 ± 18 nM, respectively.
Regarding `CC(C)[C@H](NC(=O)CCNC(=O)CSc1nonc1/C(=N/O)Nc1ccc(F)c(Br)c1)C(=O)N[C@H](C(=O)N[C@H](C(=O)N[C@H]1Cc2cn(nn2)CCCC[C@@H](C(N)=O)NC(=O)[C@@H](Cc2ccc(O)cc2)NC(=O)[C@@H](C)NC(=O)[C@@H](C(C)C)NC(=O)[C@@H](Cc2ccc(O)cc2)NC(=O)[C@@H](Cc2c[nH]c3ccccc23)NC1=O)C(C)C)C(C)C` [Inh-BA-(Val)3-wyvay] ({X1-βAla}-VVV[Pra][dW][dY][dV][dA][dY][Lys(N3)]-NH2; triazole 4-10), the “% MeCN” value in data set [2] was 45.12%.
Consider “Cy5-nlf(Me-Trp)(F-Phe): Cy5 labeled Epitope 2 macrocycle nlf(Me-Trp)(F-Phe) ([dN][dL][dF][Trp(1-Me)][Phe(4-F)]; triazole (positions not given here); not fully specified (N-terminus, C-terminus, bridges); printed as Cy5-nlf(Me-Trp)(F-Phe); also: Cy5 label, macrocycle, closure not given here)”, for which the “Internalization” value with HeLa cells was “detected by flow cytometry and imaging”.

(Values after patent US12216122B2, “Compositions and methods relating to detection, inhibition, and imaging of indoleamine 2,3-dioxygenase 1 (IDO1)” (Regeneron Pharmaceuticals, Inc., priority 2019, dated 2025).)
